The target of assay [1] is T1, Melanocortin receptor 4 (Homo sapiens, UniProt P32245). As to the kind of experiment: Displacement of Eu-DTPA-PEGO-NDP-alpha-MSH-NH2 from human MC4R expressed in […] cells after 1 hr by time-resolved fluorescence assay. Format: cell-based, HEK293.
For assay [2], the target named is T1, Melanocortin receptor 4. In words: Displacement of Eu-DTPA-PEGOMSH(7) from human MC4R expressed in […] cells after 1 hr by time-resolved fluorescence assay. Format: cell-based, HEK293.

The text below walks through data of ChEMBL document CHEMBL2412954, “Synthesis and characterization of time-resolved fluorescence probes for evaluation of competitive binding to melanocortin receptors” (Bioorg Med Chem, 2013).

T1 sequence (P32245 whole entry): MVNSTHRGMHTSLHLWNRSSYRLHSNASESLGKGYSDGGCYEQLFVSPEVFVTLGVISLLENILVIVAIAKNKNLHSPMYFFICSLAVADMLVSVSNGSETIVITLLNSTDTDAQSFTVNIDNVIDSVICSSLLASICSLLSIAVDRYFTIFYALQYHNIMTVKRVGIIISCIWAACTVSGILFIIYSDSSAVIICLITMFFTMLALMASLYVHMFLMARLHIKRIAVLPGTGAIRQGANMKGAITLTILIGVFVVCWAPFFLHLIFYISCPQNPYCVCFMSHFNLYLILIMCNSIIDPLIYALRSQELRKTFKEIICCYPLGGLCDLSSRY

Usually Ki stands for the dissociation constant of the complex between target and ligand, obtained from inhibition or displacement. Regarding `CC(C)C(O)CCC(C)C(O)CCC(C)C(O)CCC(OCCCCc1cn(CCCCCC(=O)N[C@@H](CO)C(N)=O)nn1)C(C)CCC(O)C(C)CCC(O)C(C)C` (some centres not stated), the Ki result on Melanocortin receptor 4 [1] (hek293) and on Melanocortin receptor 4 [2] (hek293) was “Not Active” each time.

As to `CC(C)C(O)CCC(C)C(O)CCC(C)C(CCC(O)C(C)CCC(O)C(C)CCC(OCCCCc1cn(CCCCCC(=O)N[C@@H](CO)C(N)=O)nn1)C(C)C)OCCCCc1cn(CCCCCC(=O)N[C@@H](CO)C(N)=O)nn1` (some centres not stated), the inhibition constant (Ki) result on Melanocortin receptor 4 [1] (hek293) and on Melanocortin receptor 4 [2] (hek293) was “Not Active” each time.

As for `CCCC[C@H](NC(=O)[C@H](CO)NC(=O)CCCCCn1cc(CCCCOC(CCC(O)C(C)CCC(O)C(C)CCC(O)C(C)C)C(C)CCC(O)C(C)CCC(O)C(C)C)nn1)C(=O)N[C@@H](CCC(=O)O)C(=O)N[C@@H](Cc1cnc[nH]1)C(=O)N[C@H](Cc1ccccc1)C(=O)N[C@@H](CCCNC(=N)N)C(=O)N[C@@H](Cc1c[nH]c2ccccc12)C(N)=O` (some centres not stated), the Ki was determined as 33 nM on Melanocortin receptor 4 [1] (read-out: Ki) and 2.4 nM on Melanocortin receptor 4 [2] (read-out: Ki).

As for `CCCC[C@H](NC(=O)[C@H](CO)NC(=O)CCCCCn1cc(CCCCOC(CCC(C)C(O)CCC(C)C(O)CCC(OCCCCc2cn(CCCCCC(=O)N[C@@H](CO)C(=O)N[C@@H](CCCC)C(=O)N[C@@H](CCC(=O)O)C(=O)N[C@@H](Cc3cnc[nH]3)C(=O)N[C@H](Cc3ccccc3)C(=O)N[C@@H](CCCNC(=N)N)C(=O)N[C@@H](Cc3c[nH]c4ccccc34)C(N)=O)nn2)C(C)CCC(O)C(C)CCC(O)C(C)C)C(C)C)nn1)C(=O)N[C@@H](CCC(=O)O)C(=O)N[C@@H](Cc1cnc[nH]1)C(=O)N[C@H](Cc1ccccc1)C(=O)N[C@@H](CCCNC(=N)N)C(=O)N[C@@H](Cc1c[nH]c2ccccc12)C(N)=O` (some centres not stated), the Ki on Melanocortin receptor 4 [2] (read-out: Ki) worked out at 1.7 nM.
